Values of other authors, collected in US12318470B2, “Agent for dyeing keratinuos material, comprising aminosilicone, a chromophoric compound and an addition product of C1-C6 alkylene oxide(s) to the esters of fatty acids and aromatic alcohols” (Henkel AG & Co. KGaA, priority 2020, dated 2025).

Legend:
[1] = 25° C.
[2] = 5% solution in water

| Compound | solubility in water [1] | also measured |
| --- | --- | --- |
| O=S(=O)([O-])c1ccc(N=Nc2c(O)ccc3ccccc23)cc1.[Na+] [Acid Orange 7, sodium salt of 4-[(2-hydroxy-1-naphthyl)azo]benzene sulphonate] | more than 7 g/L |  |
| Nc1cc(S(=O)(=O)[O-])cc2cc(S(=O)(=O)[O-])c(N=Nc3ccccc3)c(O)c12.[Na+].[Na+] [Acid Red 33, diantrium salt of 5-amino-4-hydroxy-3-(phenylazo)-naphthalene-2,7-disulphonate] | 2500 µg/mL |  |
| O=C([O-])c1c(Cl)c(Cl)c(Cl)c(Cl)c1-c1c2c(Br)cc(=O)c(Br)c-2oc2c(Br)c(O)cc(Br)c12.O=C([O-])c1c(Cl)c(Cl)c(Cl)c(Cl)c1-c1c2c(Br)cc(=O)c(Br)c-2oc2c(Br)c(O)cc(Br)c12.[Na+].[Na+] [Acid Red 92, disodium salt of 3,4,5,6-tetrachloro-2-(1,4,5,8-tetrabromo-6-hydroxy-3-oxoxanthen-9-yl)benzoic acid] | greater than 10 g/L |  |
| O=C([O-])C1=NN(c2ccc(S(=O)(=O)[O-])cc2)C(=O)C1N=Nc1ccc(S(=O)(=O)[O-])cc1.[Na+].[Na+].[Na+] (centres unmarked) [Acid Yellow 23, trisodium salt of 4,5-dihydro-5-oxo-1-(4-sulfophenyl)-4-((4-sulfophenyl)azo)-1H-pyrazole-3-carboxylic acid] |  | solubility in water (in words) [1]: readily soluble |
| O=P([O-])(O)O.[K+] [Potassium dihydrogen phosphate] |  | pH value of solution in water [2]: 4.4 |
